Values of other authors as cited in patent publication US20070190117A1 (priority 2003, published 2007).

Details: galanthamine as hydrobromide or another pharmacologically acceptable salt

half life in plasma: approx. 5 h
Compound: COc1ccc2c3c1O[C@H]1C[C@@H](O)C=C[C@@]31CCN(C)C2 [galanthamine, 4a,5,9,11,12-hexahydro-3-methoxy-11-methyl[6H]-benzofuro-[3a,3,2ef][2]benzazepine-6-ol]
